# Source: patent publication US10941157B2, “Pesticidal compositions and uses thereof” (Gilead Apollo, LLC, priority 2015, dated 2021)
# Key:
# [1] = system: Botrtyis cinerea (Bc); test: In vitro pathogen growth inhibition assay, Bc; assay type: cell-based; details: 48 h, ≥90% inhibition; 48 hours vs 2% DMSO control; read-out: Compound Concentration (ppm) sufficient for ≥90% inhibition of growth, Bc
# Summary of the method: (§1)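 Spores in 17% V8 liquid medium, or 1.5 mm Rs mycelial plugs in ¼ PDB, incubated with compound; final concentration checked by OD600 for precipitation. OD readings at 24 and 48 h, blank-subtracted, plus visual ratings; value is concentration giving ≥90% growth inhibition.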
# [2] = system: Collectotrichum graminicola (Cg); test: In vitro pathogen growth inhibition assay, Cg; assay type: cell-based; details: 48 h, ≥90% inhibition; 48 hours vs 2% DMSO control; read-out: Compound Concentration (ppm) sufficient for ≥90% inhibition of growth, Cg
# Summary of the method: as §1
# [3] = system: Diplodia maydis (Dm); test: In vitro pathogen growth inhibition assay, Dm; assay type: cell-based; details: Stenocarpella maydis, 48 h, ≥90% inhibition; 48 hours vs 2% DMSO control; read-out: Compound Concentration (ppm) sufficient for ≥90% inhibition of growth, Dm
# Summary of the method: (§2)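 Value reported is the compound concentration reaching ≥90% growth inhibition, from OD readings at 24 and 48 h after blank subtraction, confirmed visually. Inoculum was spores diluted in 17% V8 medium, except Rs, using 1.5 mm mycelial plugs in ¼ PDB; actual compound concentration corrected via OD600.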
# [4] = system: Fusarium moniliforme (Fm); test: In vitro pathogen growth inhibition assay, Fm; assay type: cell-based; details: Fusarium verticillioides; ≥90% inhibition; 48 hours vs 2% DMSO control; read-out: Compound Concentration (ppm) sufficient for ≥90% inhibition of growth, Fm
# Summary of the method: as §1
# [5] = system: Fusarium virguliforme (Fv); test: In vitro pathogen growth inhibition assay, Fv; assay type: cell-based; details: ≥90% inhibition, 48 hours vs 2% DMSO control, read-out: Compound Concentration (ppm) sufficient for ≥90% inhibition of growth, Fv
# Summary of the method: as §2
# [6] = system: Phytophthora capsici (Pc); test: In vitro pathogen growth inhibition assay, Pc; assay type: cell-based; details: 48 h, ≥90% inhibition, 48 hours vs 2% DMSO control, read-out: Compound Concentration (ppm) sufficient for ≥90% inhibition of growth, Pc
# Summary of the method: as §2
# [7] = system: Rhizoctonia solani (Rs); test: In vitro pathogen growth inhibition assay, Rs (mycelial plugs); assay type: cell-based; details: Rhizoctonia solani, 48 h, ≥90% inhibition; mycelial plugs; 48 hours vs 2% DMSO control; read-out: Compound Concentration (ppm) sufficient for ≥90% inhibition of growth, Rs
# Summary of the method: as §2
# [8] = system: Septoria tritici (St); test: In vitro pathogen growth inhibition assay, St; assay type: cell-based; details: Zymoseptoria tritici, 48 h, ≥90% inhibition; 48 hours vs 2% DMSO control; read-out: Compound Concentration (ppm) sufficient for ≥90% inhibition of growth, St
# Summary of the method: as §1
# [9] = system: Saccharomyces cerevisiae (Sc); test: Yeast growth inhibition assay; assay type: cell-based; details: Saccharomyces cerevisiae, ≥75% inhibition, read-out: Compound Concentration (ppm) sufficient for ≥75% inhibition, Sc
# Procedure: Both tables list the concentration of each compound that was sufficient to ≥90% inhibition of growth for each of the fungal pathogens listed above. In addition, some of compounds were tested in a yeast growth inhibition assay for Saccharomyces cerevisiae (Sc). Table 2 lists the concentration of the tested compound that was sufficient to ≥75% inhibition of Saccharomyces cerevisiae (Sc).
# [10] = system: Blumeria graminis f. sp. hordei; test: Foliar protection test for barley powdery mildew control; assay type: in vivo; details: foliar spray on Hordeum vulgare cv. Perry, inoculated 24 hours after treatment, evaluated 7 days later
# Summary of the method: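 Six-day-old barley (cv. Perry) sprayed to wetness on both leaf sides; 24 h later inoculated by shaking spores from infected stock plants. Kept at 20 to 22° C, 70% relative humidity; mildew colonization assessed 7 days later.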
# [11] = system: Sphaerotheca fuliginea; test: Foliar protection for cucumber powdery mildew control; assay type: in vivo; details: foliar spray on Cucumis sativus cv. Straight Eight, inoculated 24 hours after treatment, evaluated 7 days later
# Summary of the method: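 Cucumber plants (cv. Straight Eight, 10 days old) sprayed to wetness on both leaf surfaces, then inoculated 24 h later by shaking sporulating stock plants over them. Held at 23–27 °C, 16 h light, 60% RH. Mildew colonization scored 7 days after inoculation, at compound concentrations of 10 ppm or lower.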
# [12] = system: Mycosphaerella graminicola (synthetic Septoria tritici); test: Foliar protection test for wheat septoria leaf blotch control; assay type: in vivo; details: foliar spray on Triticum aestivum cv. WinterHawk, inoculated 1 hour after treatment, evaluated 16 days later
# [13] = system: Fusarium graminearum; assay type: in vivo; details: spray on flowering Triticum aestivum cv. Samson, inoculated 24 hours after treatment, evaluated 14 days later
# [14] = system: Puccinia triticina; test: Foliar protection test for wheat leaf rust control; assay type: in vivo; details: foliar application to wheat (Triticum aestivum cv. Winterhawk), evaluated 10 days later
# [15] = system: Phakopsora pachyrhizi; test: Foliar protection test for Asian soybean rust control; assay type: in vivo; details: foliar application to soybean (Glycine max AG4832), percent disease area evaluated 14 days later
# [16] = system: Rhizoctonia solani; test: Seed protectant for soybean seedling disease, R. solani; assay type: in vivo; details: soybean from treated seeds, 0.025 mg/seed, R. solani inoculated; for Plant Weight: fresh weight at 14 days; for Improvement in plant weight: percentage of non-inoculated non-treated controls
# Procedure: (§3) The pathogen of Rhizoctonia solani inoculum was grown on sterile sorghum; and the pathogen of Pythium ultimum inoculum was grown on white millet.
# (§4) Soybean seeds (Glycine max cv. AG4832) were planted in 2.5-inch square pots containing Berger BM2 germination mix amended with fertilizer (e.g., 14-14-14). Pots with soil were inoculated with the pathogen of R. solani or P. ultimum at time of planting. A hole was pressed into the soil to a depth of about 2 to 3 cm; the inoculum was added to the hole, followed by the seed which was then covered with soil. Two seeds per pot were planted. Plants were grown in a growth chamber at conditions of 20 to 24° C., 14 hour light cycle, 500 uM of light, and 65% humidity. The pots inoculated with P. ultimum were sub-irrigated every day; and the pots inoculated with R. solani were sub-irrigated every other day.
# (§5) Seedling emergence was captured at 7 and 14 days after seeding. At 14 days, the top of the plant was removed and fresh weight was recorded. The plant weights from the seeds treated with test compounds (e.g., in formulations) were compared to the ones either from the inoculated non-treated seeds or non-inoculated non-treated seeds. Table 10 lists the results of the R. solani control in soybean upon seed treatment with test compounds, and Table 11 lists the results of the P. ultimum control in soybean upon seed treatment with test compounds, respectively.
# [17] = system: Pythium ultimum; test: Seed protectant for soybean seedling disease, P. ultimum; assay type: in vivo; details: soybean from treated seeds, 0.025 mg/seed, P. ultimum inoculated; for Plant Weight: fresh weight at 14 days; for Improvement in plant weight: percentage of non-inoculated non-treated controls
# Procedure: as §3, §4, §5
Structure (SMILES),IC90 [1],IC90 [2],IC90 [3],IC90 [4],IC90 [5],IC90 [6],IC90 [7],IC90 [8],IC75 [9],Barley Powdery Mildew Control at a compound concentration of 10 ppm or lower [10],Cucumber Powdery Mildew Control at a compound concentration of 10 ppm or lower [11],Septoria Leaf Blotch Control at a compound concentration of 25 ppm or lower [12],Wheat Fusarium Head Blight Control at a compound concentration of 25 ppm or lower [13],Wheat Leaf Rust Control at a compound concentration of 10 ppm or lower [14],Asian Soybean Rust Control at a compound concentration of 25 ppm or lower [15],Plant Weight [16],Improvement in plant weight [16],Plant Weight [17],Improvement in plant weight [17]
"CCOC(=O)c1sc2c(c1C)c(=O)n(C(C)(C)C(=O)N1CCCC1)c(=O)n2C[C@H](OC1CCOCC1)c1ccccc1OC [Compound I-003, (R)-ethyl-1-(2-(2-methoxyphenyl)-2-((tetrahydro-2H-pyran-4-yl)oxy)ethyl)-5-methyl-3-(2-methyl-1-oxo-1-(pyrrolidin-1-yl)propan-2-yl)-2,4-dioxo-1,2,3,4-tetrahydrothieno[2,3-d]pyrimidine-6-carboxylate]",2 µg/mL,0.4 µg/mL,2 µg/mL,0.08 µg/mL,0.4 µg/mL,> 50 µg/mL,0.4 µg/mL,≥ 10 µg/mL,0.4 µg/mL,A (from 70% to 84% control of barley powdery mildew),AA (≥85% control of cucumber powdery mildew),C (from 25 to 49% control of wheat septoria leaf blotch),B (from 50 to 69% control of wheat fusarium head blight),AA (≥85% control of wheat leaf rust),A (from 70% to 84% control of Asian soybean rust),–,–,–,–
"COc1ccc(F)cc1[C@H](Cn1c(=O)n(C(C)(C)C(=O)NC(C)C)c(=O)c2c(C)c(-n3cccn3)sc21)OC(C)C [Compound I-014, (R)-2-(1-(2-(5-fluoro-2-methoxyphenyl)-2-isopropoxyethyl)-5-methyl-2,4-dioxo-6-(1H-pyrazol-1-yl)-1,4-dihydrothieno[2,3-d]pyrimidin-3(2H)-yl)-N-isopropyl-2-methylpropanamide]",0.4 µg/mL,2 µg/mL,2 µg/mL,0.08 µg/mL,0.4 µg/mL,> 50 µg/mL,2 µg/mL,> 10 µg/mL,1.2 µg/mL,AA (≥85% control of barley powdery mildew),AA (≥85% control of cucumber powdery mildew),D (<25% control of wheat septoria leaf blotch),C (from 25 to 49% control of wheat fusarium head blight),A (from 70% to 84% control of wheat leaf rust),A (from 70% to 84% control of Asian soybean rust),–,–,–,–
"COc1ccc(F)cc1[C@H](Cn1c(=O)n(C(C)(C)C(=O)NC(C)C)c(=O)c2c(C)c(-n3nccn3)sc21)OCCO [Compound I-064, (R)-2-(1-(2-(5-fluoro-2-methoxyphenyl)-2-(2-hydroxyethoxy)ethyl)-5-methyl-2,4-dioxo-6-(2H-1,2,3-triazol-2-yl)-1,4-dihydrothieno[2,3-d]pyrimidin-3 (2H)-yl)-N-isopropyl-2-methylpropanamide]",2 µg/mL,0.4 µg/mL,0.4 µg/mL,0.08 µg/mL,0.4 µg/mL,≥ 2 µg/mL,≥ 0.08 µg/mL,≥ 2 µg/mL,–,A (from 70% to 84% control of barley powdery mildew),AA (≥85% control of cucumber powdery mildew),A (from 70% to 84% control of wheat septoria leaf blotch),C (from 25 to 49% control of wheat fusarium head blight),AA (≥85% control of wheat leaf rust),A (from 70% to 84% control of Asian soybean rust),6.41 g,79.9%,5.49 g,88%
"COCCO[C@@H](Cn1c(=O)n(C(C)(C)C(=O)NC(C)C)c(=O)c2c(C)c(-n3nccn3)sc21)c1cc(F)ccc1OC [Compound I-074, (R)-2-(1-(2-(5-fluoro-2-methoxyphenyl)-2-(2-methoxyethoxy)ethyl)-5-methyl-2,4-dioxo-6-(2H-1,2,3-triazol-2-yl)-1,4-dihydrothieno[2,3-d]pyrimidin-3 (2H)-yl)-N-isopropyl-2-methylpropanamide]",2 µg/mL,2 µg/mL,2 µg/mL,0.08 µg/mL,0.4 µg/mL,≥ 50 µg/mL,0.4 µg/mL,> 50 µg/mL,–,AA (≥85% control of barley powdery mildew),AA (≥85% control of cucumber powdery mildew),AA (≥85% control of wheat septoria leaf blotch),C (from 25 to 49% control of wheat fusarium head blight),A (from 70% to 84% control of wheat leaf rust),C (from 25 to 49% control of Asian soybean rust),2.06 g,25.7%,4.33 g,69%
